Measured values reported in article PMC12224983, “Isoquercitrin Alleviates Diabetic Nephropathy by Inhibiting STAT3 Phosphorylation and Dimerization” (Advanced Science, 2025).

Target: T1, signal transducer and activator of transcription 3 (STAT3) (Homo sapiens, UniProt P40763)
T1 construct: Wild-type STAT3 proteins
Test: SPR (BIAcore T200, STAT3 immobilized on CM5 chip); supported by pull-down, proteome microarray and CETSA
Format: binding

T1 sequence (P40763 2-770): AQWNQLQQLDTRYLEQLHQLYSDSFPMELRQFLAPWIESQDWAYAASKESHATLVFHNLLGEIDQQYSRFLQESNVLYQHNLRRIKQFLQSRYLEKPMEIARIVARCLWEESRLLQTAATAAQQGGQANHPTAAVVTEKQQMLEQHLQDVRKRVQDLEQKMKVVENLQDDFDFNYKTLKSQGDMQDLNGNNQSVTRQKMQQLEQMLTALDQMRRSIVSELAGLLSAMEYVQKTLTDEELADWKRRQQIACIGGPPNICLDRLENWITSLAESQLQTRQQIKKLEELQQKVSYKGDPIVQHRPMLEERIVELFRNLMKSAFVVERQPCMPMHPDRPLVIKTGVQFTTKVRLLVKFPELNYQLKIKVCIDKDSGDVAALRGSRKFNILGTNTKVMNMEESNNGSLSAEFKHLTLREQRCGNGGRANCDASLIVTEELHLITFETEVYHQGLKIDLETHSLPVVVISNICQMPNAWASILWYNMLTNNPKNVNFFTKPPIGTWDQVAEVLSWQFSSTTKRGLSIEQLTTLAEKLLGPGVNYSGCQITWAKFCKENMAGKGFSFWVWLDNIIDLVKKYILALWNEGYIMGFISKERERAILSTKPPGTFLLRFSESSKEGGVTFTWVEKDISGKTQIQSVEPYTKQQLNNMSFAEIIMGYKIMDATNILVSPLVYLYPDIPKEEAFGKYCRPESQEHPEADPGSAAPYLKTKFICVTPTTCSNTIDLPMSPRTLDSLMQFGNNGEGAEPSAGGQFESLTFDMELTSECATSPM

SMILES: O=c1c(O[C@@H]2O[C@H](CO)[C@@H](O)[C@H](O)[C@H]2O)c(-c2ccc(O)c(O)c2)oc2cc(O)cc(O)c12 [Isoquercitrin]
- Kd: 2860 nM
